Source: patent US20200085776A1, “Methods of Reducing C-Reactive Protein and/or Treating Cardiovascular Disease” (CARDAX, INC., priority 2018, published 2020)

System: C-reactive protein (CRP)
Test: CRP (hs-CRP) in blood, CHASE clinical study
Type: in vivo, human
Conditions: Group X 12 mg BID
Description: This is a two-part study comprising Part I and Part II. Following screening, Part I consists of a randomized, double-blind, placebo controlled dosing period of up to 12 weeks. The study shall be conducted at one or more study sites in Hawaii. Approximately 360 subjects qualified after completion of screening procedures shall be randomized in a 1:1:1 ratio to one of three treatment groups, per Table 1.
The Part I 12-week double-blind dosing period commences with V2, including randomization and first dose of study product, and continues with study visits at Week 1-2 (V3), Week 4 (V4), Week 8 (V5), and Week 12 (V6). V6 procedures will conclude Part I.
Blood shall be obtained at each visit for CRP. The screening specimen shall be processed at the local lab and reported to the study staff for eligibility determination; CRP samples at V7 and V8 may also be processed locally and reported directly to study staff. Samples for CRP from V2 through V6 may be batched, processed, and reported as specified in the Laboratory Manual.
At each these visits, blood was obtained for measurement of CRP, among other parameters. Table 7A provides a summary of the CRP measurements (mg/L) at each visit and Table 7B provides a summary of the differences of CRP levels between V2 and V6.

[1] = V1 screening, subjects with baseline level greater than 2.0
[2] = V2 baseline pre-dose, all subjects
[3] = V2 baseline pre-dose, subjects not taking a hypertension agent
[4] = V2 baseline pre-dose, subjects not taking any cardiac therapeutic agent
[5] = V2 baseline pre-dose, subjects not taking statins
[6] = V2 baseline pre-dose, subjects taking an anti-diabetic agent
[7] = V2 baseline pre-dose, subjects with CAD
[8] = V2 baseline pre-dose, subjects with DM2, hypertension and hyperlipidemia but not CAD
[9] = V2 baseline pre-dose, subjects with Diabetes Mellitus Type II
[10] = V2 baseline pre-dose, subjects with baseline level greater than 2.0
[11] = V2 baseline pre-dose, subjects with hyperlipidemia
[12] = V3 Week 1-2, subjects with baseline level greater than 2.0
[13] = V4 Week 4, subjects with baseline level greater than 2.0
[14] = V5 Week 8, subjects with baseline level greater than 2.0
[15] = V6 Week 12, subjects not taking a hypertension agent
[16] = V6 Week 12, subjects not taking any cardiac therapeutic agent
[17] = V6 Week 12, subjects not taking statins
[18] = V6 Week 12, subjects taking an anti-diabetic agent

CC1=C(/C=C/C(C)=C/C=C/C(C)=C/C=C/C=C(C)/C=C/C=C(C)/C=C/C2=C(C)C(=O)C(O)CC2(C)C)C(C)(C)CC(O)C1=O (stereo not drawn) [Astaxanthin, astaxanthin]
CRP Max (V1 screening, all subjects): 15.96 mg/L | CRP Mean (SD) (V1 screening, all subjects): 5.43 (3.91) mg/L | CRP Median (V1 screening, all subjects): 3.95 mg/L | CRP Min (V1 screening, all subjects): 2.87 mg/L | CRP Max [1]: 15.96 mg/L | CRP Mean (SD) [1]: 5.64 (4.06) mg/L | CRP Median [1]: 3.98 mg/L | CRP Min [1]: 2.87 mg/L | CRP Max [2]: 17.86 mg/L | CRP Mean (SD) [2]: 5.52 (4.80) mg/L | CRP Median [2]: 3.64 mg/L | CRP Min [2]: 1.39 mg/L | CRP Max [3]: 3.64, 3.64 mg/L | CRP Mean (SD) [3]: 3.64 mg/L | CRP Median [3]: 3.64 mg/L | CRP Min [3]: 3.64, 3.64 mg/L | CRP Max [4]: 17.86 mg/L | CRP Mean (SD) [4]: 6.81 (6.86) mg/L | CRP Median [4]: 3.64 mg/L | CRP Min [4]: 1.39 mg/L | CRP Max [5]: 8.61 mg/L | CRP Mean (SD) [5]: 4.04 (2.48) mg/L | CRP Median [5]: 3.12 mg/L | CRP Min [5]: 2.16 mg/L | CRP Max [6]: 17.86 mg/L | CRP Mean (SD) [6]: 7.52 (5.87) mg/L | CRP Median [6]: 6.78 mg/L | CRP Min [6]: 1.39 mg/L | CRP Max [7]: 8.61, 8.61 mg/L | CRP Mean (SD) [7]: 8.61 mg/L | CRP Median [7]: 8.61 mg/L | CRP Min [7]: 8.61, 8.61 mg/L | CRP Max [8]: 17.86 mg/L | CRP Mean (SD) [8]: 7.30 (6.54) mg/L | CRP Median [8]: 4.94 mg/L | CRP Min [8]: 1.39 mg/L | CRP Max [9]: 17.86 mg/L | CRP Mean (SD) [9]: 7.52 (5.87) mg/L | CRP Median [9]: 6.78 mg/L | CRP Min [9]: 1.39 mg/L | CRP Max [10]: 17.86 mg/L | CRP Mean (SD) [10]: 5.93 (4.85) mg/L | CRP Median [10]: 4.29 mg/L | CRP Min [10]: 2.16 mg/L | CRP Max [11]: 17.86 mg/L | CRP Mean (SD) [11]: 6.71 (5.19) mg/L | CRP Median [11]: 4.95 mg/L | CRP Min [11]: 1.39 mg/L | CRP Max (V3 Week 1-2, all subjects): 6.72 mg/L | CRP Mean (SD) (V3 Week 1-2, all subjects): 3.72 (2.06) mg/L | CRP Median (V3 Week 1-2, all subjects): 3.44 mg/L | CRP Min (V3 Week 1-2, all subjects): 0.44 mg/L | CRP Max [12]: 6.72 mg/L | CRP Mean (SD) [12]: 3.97 (1.97) mg/L | CRP Median [12]: 3.55 mg/L | CRP Min [12]: 0.44 mg/L | CRP Max (V4 Week 4, all subjects): 15.83 mg/L | CRP Mean (SD) (V4 Week 4, all subjects): 3.98 (4.24) mg/L | CRP Median (V4 Week 4, all subjects): 2.56 mg/L | CRP Min (V4 Week 4, all subjects): 0.56 mg/L | CRP Max [13]: 15.83 mg/L | CRP Mean (SD) [13]: 4.22 (4.39) mg/L | CRP Median [13]: 3.27 mg/L | CRP Min [13]: 0.56 mg/L | CRP Max (V5 Week 8, all subjects): 18.24 mg/L | CRP Mean (SD) (V5 Week 8, all subjects): 4.90 (4.99) mg/L | CRP Median (V5 Week 8, all subjects): 3.71 mg/L | CRP Min (V5 Week 8, all subjects): 1.06 mg/L | CRP Max [14]: 18.24 mg/L | CRP Mean (SD) [14]: 5.29 (5.09) mg/L | CRP Median [14]: 4.08 mg/L | CRP Min [14]: 1.06 mg/L | CRP Max (V6 Week 12, all subjects): 11.04 mg/L | CRP Mean (SD) (V6 Week 12, all subjects): 3.45 (3.09) mg/L | CRP Median (V6 Week 12, all subjects): 2.70 mg/L | CRP Min (V6 Week 12, all subjects): 0.22 mg/L | CRP Max [15]: 2.70, 2.70 mg/L | CRP Mean (SD) [15]: 2.70 mg/L | CRP Median [15]: 2.70 mg/L | CRP Min [15]: 2.70, 2.70 mg/L | CRP Max [16]: 6.80 mg/L | CRP Mean (SD) [16]: 2.53 (2.56) mg/L | CRP Median [16]: 1.91 mg/L | CRP Min [16]: 0.22 mg/L | CRP Max [17]: 11.04 mg/L | CRP Mean (SD) [17]: 3.86 (3.78) mg/L | CRP Median [17]: 2.71 mg/L | CRP Min [17]: 0.22 mg/L | CRP Max [18]: 6.80 mg/L | CRP Mean (SD) [18]: 2.91 (2.07) mg/L | CRP Median [18]: 2.32 mg/L | CRP Min [18]: 1.02 mg/L | CRP Max (V6 Week 12, subjects with CAD): 2.72, 2.72 mg/L | CRP Mean (SD) (V6 Week 12, subjects with CAD): 2.72 mg/L | CRP Median (V6 Week 12, subjects with CAD): 2.72 mg/L | CRP Min (V6 Week 12, subjects with CAD): 2.72, 2.72 mg/L
